# Source: patent US12508243B2, “Compositions and methods for treating cancer and improving epithelial homeostasis” (The Regents of the University of California, priority 2019, dated 2025)
# Entries after “also recorded” stand apart in the source; their conditions may differ.
# Assays:
# mouse ABSCs (mABSCs) [1] = assay: EdU proliferation assay in mouse ABSCs, submerged culture; format: cell-based; conditions: submerged culture 4 days; for mABSC proliferation (EdU incorporation): 1 μM CHIR + 1 μM inhibitor
# Description: Mouse and human ABSCs were isolated following a previously published method. Briefly, mouse tracheas were dissected, cleaned, and incubated in 16 U/mL dispase for 30 minutes (1 hour for human) at room temperature. Tracheas were then incubated in 0.5 mg/mL DNase for another 30 minutes (1 hour for human) at room temperature. Epithelium was stripped and incubated in 0.1% Trypsin-EDTA for 30 minutes (1 hour for human) shaking at 37° C. to generate a single cell suspension. Isolated cells were passed through a 40 μm strainer and stained with fluorophore-conjugated antibodies against ITGA6 and TROP2. ITGA6+ TROP2+ cells were obtained via FACS that was completed using the BD FACSAria cell sorter.
# In vitro proliferation was studied using the Click-iT EdU incorporation assay kit (Invitrogen C10337) following the company's protocol. Briefly, mouse and human AB SC cultures were treated with 10 μM EdU 6-8 hours prior to commencing IFs. Cells were fixed with […] for 15 minutes followed by permeabilization in 0.5% Triton-X for 20 minutes. EdU cocktail was incubated for 30 minutes in darkness followed by immunocytochemistry.
# (§1) To determine whether the pathobiology observed in human patients can be modeled in vitro, mouse ABSCs (mABSCs) were treated with GSK3β inhibitor CHIR99021 (CHIR) under submerged culture conditions for 4 days to activate canonical Wnt signaling (FIG. 2A).
# human ABSCs = assay: Air-liquid interface (ALI) differentiation assay with human ABSCs; format: cell-based; conditions: human ABSCs, treated for 21 days
# Description: (§2) 24-well 6.5 mm transwells with 0.4 μm pore polyester membrane inserts were coated with 0.2 mg/mL collagen type I dissolved in 60% ethanol and allowed to air dry. ABSCs were seeded at 100,000 cells per well and allowed to grow in the submerged phase of culture for 4-5 days with 500 μl media in the basal chamber and 200 μl media in the apical chamber. ALI cultures were then established and culture with only 500 μl media in the basal chamber, and cultures harvested at varying timepoints for immunofluorescence studies. Media was changed every other day and cultures were maintained at 37° C. and 5% C02. ABSCs were treated with the indicated concentrations of GSK3XV (Sigma 361558), CHIR or WIC1.
# (§3) Mouse and human ABSCs were fixed in […] for 15 minutes followed by permeabilization with 0.50% Triton-X for 10 minutes. Cells were blocked using serum-free protein block (Dako X090930) for one hour at room temperature and overnight primary antibody incubation. Secondary antibodies were incubated for 1 hour in darkness, washed, and mounted using Vectashield hardest mounting medium with DAPI (Vector Labs H-1500). IF images were obtained using an LSM780 or LSM880 Zeiss confocal microscope and composite images generated using Fiji.
# To assess whether WIC1 could reverse Wnt/β-catenin-induced ABSC hyperproliferation, human ABSCs were treated with either DMSO, CHIR, or CHIR+WIC1. […] It was then sought to determine if WIC1 could promote ABSC differentiation to ciliated cells under ALI conditions.
# p-β-catenin^Y489 = assay: Immunofluorescence staining of phosphorylated β-catenin localization in ABSCs; format: cell-based, mouse
# Description: as §3, §1
# Trp63 = Trp63 expression with CHIR and WIC1 treatment (FIG. 4F); format: cell-based; conditions: CHIR treatment
# Description: (§4) RNA was isolated with the RNeasy Mini Kit (Qiagen 74104) following manufacturer's protocol and quantified using a NanoDrop Spectrophotometer (ThermoFisher). cDNA synthesis was performed using the TaqMan Reverse Transcription Reagents (ThermoFisher) as indicated by the company. qPCR was then performed using the TaqMan PCR Master Mix (Applied Biosystems) on the StepOne-Plus Real Time PCR System.
# TP63 = assay: qRT-PCR of TP63 expression in BEAS2B cells; format: cell-based, human; conditions: addition of CHIR
# Description: as §4
# mouse ABSCs (mABSCs) [2] = assay: Air-liquid interface (ALI) differentiation assay with mouse ABSCs; format: cell-based
# Description: as §2
# Mouse ABSCs were grown in MTEC Plus media and MTEC serum-free media during the submerged and ALI phases of culture, respectively. MTEC base media is DMEM/Ham's F12 50/50 (Corning 15090CV). Table S1 and Table S2 indicate the media components and concentrations for MTEC Plus and MTEC serum-free media, respectively.
# as §3, with “Fiji. […]” for “Fiji.”
# BEAS2B cells = assay: Cell Titer Glo toxicity assay in BEAS2B cells; format: cell-based, human; conditions: various concentrations
# Description: (§5) For luciferase reporter assays conducted outside of the high-throughput drug screen, BEAS2B cells were seeded in a 96-well plate at 20,000 cells per well. The following day, cells were with treated DMSO, 5 μM CHIR99021 (CHIR; Tocris 4423), or 5 μM CHIR plus WIC2 (Key Organics GP-0355), Coumarin (Sigma C4261), or WIC1 for 24 hours. Lysis reactions were conducted using BrightGlo (Promega E1910) and incubated for two minutes at room temperature prior to transferring luminescence reactions to white-bottom, white-walled 96-well plates (Costar). Toxicity assays were conducted by adding Cell Titer Glo reagent (Promega) following manufacturer's protocol. Luminescence readings were conducted using the Clariostar plate reader.
# [3] = test system: TCF/LEF luciferase reporter; assay: TCF/LEF luciferase reporter assay in transduced BEAS2B cells (CHIR-induced); format: cell-based, human; conditions: 10 nM, WIC1, MSAB, LF3, ICG001 compared
# Description: BEAS2B cells (ATCC CRL-9609) were seeded in a 6-well plate and infected with Cignal lentiviral particles containing a TCF/LEF luciferase reporter (Qiagen CLS-018L). Cells were spin infected at 37° C. for one hour using a multiplicity of infection of 20. Cells were selected with 0.6 μg/mL puromycin to isolate stably expressing clones.
# as §5
# In light of the finding that Wnt/β-catenin signaling drives ABSC hyperproliferation, a small molecule inhibitors of the pathway that could restore airway homeostasis. A high-throughput drug screen was established to identify compounds capable of reducing TCF/LEF activity measured by a luciferase reporter induced by CHIR treatment in a 384-well format (FIG. 3A). Briefly, white-bottom 384-well plates (Greiner One) were precoated overnight with 0.01 mg/mL fibronectin from human plasma (Sigma F0895), 0.03 mg/mL rat tail collagen type I (Corning 354249), and 0.01 mg/mL BSA (ThermoFisher BP-9706) diluted in 50 uL of Airway Epithelial Cell Growth Medium (PromoCell C21060). Precoat was then aspirated and washed using 100 μL the BioTek EL406. A custom V&P pin tool mounted to a Beckman FX liquid handler was then used to pin […] of 10 mM stock compound. 2,000 BEAS2B cells per well were then seeded using the Multidrop. Cells were therefore treated with 1% DMSO, 5 μM CHIR, or 5 μM CHIR+10 μM pinned compound and incubated for 24 hours at 37° C. and 5% CO2. […] 25 μL BrightGlo (Promega) was subsequently added to each well using the BioTek EL405 and incubated for 2 minutes prior reading luminescence values with the Envision plate reader (FIG. 3B). […] Z′ factor values were used to assess assay quality and was calculated by: Z′=1-3(SD Total+SDBackground)/(MeanTotal−MeanBackground) where SDTotal and MeanTotal are the standard deviation and mean of signal for CHIR-treated wells, and SDBackground and MeanBackground are the standard deviation and mean of signal for DMSO-treated wells. The Z′ factor value was calculated to be 0.82.
# [4] = test system: TCF/LEF luciferase reporter; assay: TCF/LEF (TOPFLASH) luciferase reporter in mABSCs; format: cell-based, mouse; conditions: vs DMSO-treated cultures
# Description: mABSCs were seeded in a 6-well transwell plate and transiently transfected with […] of the TOPFLASH luciferase reporter and […] Renilla Luciferase reporter vector pRL-TK for internal control (Promega). Transfections were conducted using Lipofectamine 2000 Transfection Reagent (ThermoFisher 11668030) following the manufacturer's protocol.
# as §1
# [5] = mABSCs, ALI, GSK3β inhibitor vs DMSO
# [6] = mABSCs, ALI, 100 nM inhibitor vs DMSO
# [7] = mABSCs, ALI, 1 μM inhibitor vs DMSO
molecule,measurement,setting,value
"Cc1c[nH]c(-c2cnc(NCCNc3ccc(C#N)cn3)nc2-c2ccc(Cl)cc2Cl)n1 [CHIR, CHIR99021]",mABSC proliferation (EdU),mouse ABSCs (mABSCs) [1]; compound alone vs DMSO,statistically significant increase in proliferation; also recorded: statistically significant increased proliferation
same,Differentiation to the ciliated cell fate,human ABSCs,abolished differentiation to the cilated cell fate
same,Pool of ABSCs,human ABSCs,increased pool for ABSCs
same,Nuclear p-β-catenin^Y489,p-β-catenin^Y489; compound alone vs DMSO,increase in nuclear p-β-cateninY489; also recorded: increased nuclear p-β-catenin^Y489; also recorded: induced nuclear localization of p-β-catenin^Y489
same,"Localization of other phosphorylated forms of β-catenin (Y654, S552, S33,S37,T41)","p-β-catenin^Y489; mouse ABSCs, submerged phase of culture",remained primarily cytoplasmic or membranous
same,Trp63 expression,Trp63,induction of Trp63 expression
same,TP63 expression,TP63,increase in TP63 expression
same,Percentage of ciliated cells,mouse ABSCs (mABSCs) [2]; [5],significant reduction in the percentage of ciliated cells
same,Pool of K5+ mABSCs,mouse ABSCs (mABSCs) [2]; [5],increased pool of K5+ mABSCs
same,ABSC morphology,"mouse ABSCs (mABSCs) [2]; mABSCs, ALI, vs DMSO",clumping morphology reminiscent of PMLs; also recorded: dose-dependent heaping morphology that resembles the PMLs
O=C1[C@H](Cc2ccc(O)cc2)N2C(=O)CCN(C(=O)NCc3ccccc3)[C@H]2CN1Cc1cccc2ccccc12 [ICG001],mABSC proliferation (EdU incorporation),mouse ABSCs (mABSCs) [1],decreased mABSC proliferation to a similar degree
same,Toxicity by Cell Titer Glo,BEAS2B cells,dose dependent toxicity
same,Proportion of ciliated cells,mouse ABSCs (mABSCs) [2]; [6],induced a greater proportion of ciliated cells
same,Percentage of ciliated cells,mouse ABSCs (mABSCs) [2]; [7],no effect on the percentage of ciliated cells
COC(=O)c1cccc(NS(=O)(=O)c2ccc(C)cc2)c1 [MSAB],mABSC proliferation (EdU incorporation),mouse ABSCs (mABSCs) [1],decreased mABSC proliferation to a similar degree
same,Toxicity by Cell Titer Glo,BEAS2B cells,dose dependent toxicity
same,"TCF/LEF activity, inhibitor comparison",[3],only inhibitor that decreased TCF/LEF activity at 10 nM
same,Proportion of ciliated cells,mouse ABSCs (mABSCs) [2]; [6],neither 100 nM nor 1 μM MSAB increased differentiation to the ciliated cell fate
same,Percentage of ciliated cells,mouse ABSCs (mABSCs) [2]; [7],neither 100 nM nor 1 μM MSAB increased differentiation to the ciliated cell fate
"Wnt3A: recombinant Wnt3A protein used to raise Wnt signaling (protein, UniProt P56704 19-352, looked up) Protein Wnt-3a: SYPIWWSLAVGPQYSSLGSQPILCASIPGLVPKQLRFCRNYVEIMPSVAEGIKIGIQECQHQFRGRRWNCTTVHDSLAIFGPVLDKATRESAFVHAIASAGVAFAVTRSCAEGTAAICGCSSRHQGSPGKGWKWGGCSEDIEFGGMVSREFADARENRPDARSAMNRHNNEAGRQAIASHMHLKCKCHGLSGSCEVKTCWWSQPDFRAIGDFLKDKYDSASEMVVEKHRESRGWVETLRPRYTYFKVPTERDLVYYEASPNFCEPNPETGSFGTRDRTCNVSSHGIDGCDLLCCGRGHNARAERRREKCRCVFHWCCYVSCQECTRVYDVHTCK",TCF/LEF activity measured by a luciferase reporter,[4],increased TCF/LEF activity
same,Proportion of ciliated cells,"mouse ABSCs (mABSCs) [2]; ALI conditions, 100 ng/mL",increased the proportion of ciliated cells
same,K5+ mABSCs,"mouse ABSCs (mABSCs) [2]; ALI conditions, 500 ng/mL",K5+ mABSC expansion
same,Proportion of ciliated cells,"mouse ABSCs (mABSCs) [2]; ALI conditions, 500 ng/mL",produced fewer ciliated cells
